Values quoted from earlier work in patent US12276869B1, “WS12-releasing contact lens” (CooperVision International Limited, priority 2022, dated 2025).

Details: incorporated into silicone hydrogel contact lenses

COc1ccc(NC(=O)C2CC(C)CCC2C(C)C)cc1 (stereo not shown) [WS12, N-(4-Methoxyphenyl)-5-methyl-2-(1-methylethyl)cyclohexanecarboxamide]
stability to autoclave sterilization in silicone hydrogel contact lenses: withstand autoclave sterilization without degradation or leaching into the packaging solution
